SMILES strings stand for the structures. pIC50: −log10 of the molar value. Values after ≈ are worked out from the molar mass of the structure shown.

The subject of data set [1] is recombinant guanylate cyclase reporter cell line. Description: Effect on a recombinant guanylate cyclase reporter cell line. To be noted: minimum effective concentration; in some cases means of individual determinations; read-out: MEC. The format is cell-based. Here is the method:
B-2. Effect on a Recombinant Guanylate Cyclase Reporter Cell Line
The cellular activity of the compounds of the invention is determined using a recombinant guanylate cyclase reporter cell line, as described in F. Wunder et al., Anal. Biochem. 339, 104-112 (2005). Representative values (MEC=minimum effective concentration) for the compounds of the invention are shown in the table below (Table 1; in some cases as means of individual determinations): […]

Data set [2] concerns the target T1, human phosphodiesterase 5 (PDE 5) (Homo sapiens, UniProt O76074).
T1 construct: PDE 5 preparations are obtained from human platelets by disruption; from tissue; host or cells: human platelets
Put plainly: Inhibition of human phosphodiesterase 5 (PDE 5). To be noted: PDE 5 preparation from human platelets; in some cases means of individual determinations. It counts as biochemical. How it is done: B-3. Inhibition of human phosphodiesterase 5 (PDE 5)
PDE 5 preparations are obtained from human platelets by disruption (Microfluidizer®, 800 bar, 3 passes), followed by centrifugation (75 000 g, 60 min, 4° C.) and ion exchange chromatography of the supernatant on a Mono Q 10/10 column (linear sodium chloride gradient, elution with a 0.2-0.3M solution of sodium chloride in buffer (20 mM Hepes pH 7.2, 2 mM magnesium chloride). Fractions having PDE 5 activity are combined (PDE 5 preparation) and stored at −80° C.
To determine their in vitro action on human PDE 5, the test substances are dissolved in 100% DMSO and serially diluted. Typically, dilution series (1:3) from 200 μM to 0.091 μM are prepared (resulting final concentrations in the test: 4 μM to 0.0018 μM). In each case 2 μl of the diluted substance solutions are placed into the wells of microtitre plates (Isoplate-96/200W; Perkin Elmer). Subsequently, 50 μl of a dilution of the above-described PDE 5 preparation are added. The dilution of the PDE 5 preparation is chosen such that during the later incubation less than 70% of the substrate are converted (typical dilution: 1:100; dilution buffer: 50 mM tris/hydrochloric acid pH 7.5, 8.3 mM magnesium chloride, 1.7 mM EDTA, 0.2% BSA). The substrate, [8-^3H] cyclic guanosine-3′,5′-monophosphate (1 μCi/μl; Perkin Elmer), is diluted 1:2000 with assay buffer (50 mM tris/hydrochloric acid pH 7.5, 8.3 mM magnesium chloride, 1.7 mM EDTA) to a concentration of 0.0005 μμCi/μl. By addition of 50 μl (0.025 μCi) of the diluted substrate, the enzyme reaction is finally started. The test mixtures are incubated at room temperature for 60 min and the reaction is stopped by adding 25 μl of a suspension of 18 mg/ml yttrium scintillation proximity beads in water (phosphodiesterase beads for SPA assays, RPNQ 0150, Perkin Elmer). The microtitre plates are sealed with a film and left to stand at room temperature for 60 min. Subsequently, the plates are analysed for 30 s per well in a Microbeta scintillation counter (Perkin Elmer). IC50 values are determined using the graphic plot of the substance concentration against percentage PDE 5 inhibition.

Data set [3] in a line: Solubility of substances in buffer pH 6.5. The format is physicochemical. To be noted: aqueous buffer, kinetic from dmso stock, PBS buffer pH 6.5, room temperature. Here is the method: B-10. Determination of the Solubility of Substances in Buffer pH 6.5
40 μl of DMSO are added to 2 mg of a test substance [50 g/l]. 10 μl of this solution are removed and introduced into 990 μl of PBS buffer pH 6.5 (c=500 μg/ml). This solution/suspension is shaken at room temperature for 24 h. After 30 min of ultracentrifugation at 114 000 g, the supernatant is removed, diluted with ACN/water 8:2 and analyzed by LC-MSMS.
For calibration, likewise 10 pi are removed from the DMSO stock solution and introduced into 823 μl of DMSO (c=600 μg/ml). Quantification takes place using a five-point calibration curve.

With `Cc1nc2c(cc1F)c(-c1nc(NCC(N)(CF)CF)c3c(n1)NC(=O)C3(C)C)nn2Cc1cccc(F)c1F` [Example 1, 4-{[2-Amino-3-fluoro-2-(fluoromethyl)propyl]amino}-2[1-(2,3-difluorobenzyl)-5-fluoro-6-methyl-1H-pyrazolo[3,4-b]pyridin-3-yl]-5,5-dimethyl-5,7-dihydro-6H-pyrrolo[2,3-d]pyrimidin-6-one], the minimal effective concentration in data set [1] stood at 0.3 µM. Also, the pIC50 in data set [2] is 7.28. In data set [3], this compound displayed a solubility at 24 h of 7.6 µg/mL (≈ 13.6 µM).
The corresponding values for `CC1(C)C(=O)Nc2nc(-c3nn(Cc4ncccc4F)c4ncc(F)cc34)nc(NCC(N)(CF)CF)c21` [Example 5, 4-{[2-Amino-3-fluoro-2-(fluoromethyl)propyl]amino}-2-{5-fluoro-1-[(3-fluoropyridin-2-yl)methyl]-1H-pyrazolo[3,4-b]pyridin-3-yl}-5,5-dimethyl-5,7-dihydro-6H-pyrrolo[2,3-d]pyrimidin-6-one] are 1 µM, 7.15 and 278 µg/mL (≈ 526 µM).
For `Cc1nc2c(cc1F)c(-c1nc(NCC(N)(CF)CF)c3c(n1)NC(=O)C3(C)C)nn2Cc1ccccc1F` [Example 2, 4-{[2-Amino-3-fluoro-2-(fluoromethyl)propyl]amino}-2-[5-fluoro-1-(2-fluorobenzyl)-6-methyl-1H-pyrazolo[3,4-b]pyridin-3-yl]-5,5-dimethyl-5,7-dihydro-6H-pyrrolo[2,3-d]pyrimidin-6-one], in data set [1], the minimal effective concentration amounted to 0.1 µM. In addition, in data set [2], the negative-log IC50 (pIC50) is 6.80. For the same compound, the solubility at 24 h in data set [3] turned out to be 5.1 µg/mL (≈ 9.4 µM).
As to `Cc1nc2c(cc1F)c(-c1nc(NCC(N)(CF)CF)c3c(n1)NC(=O)C3(C)C)nn2Cc1ncccc1F` [Example 4, 4-{[2-Amino-3-fluoro-2-(fluoromethyl)propyl]amino}-2-{5-fluoro-1-[(3-fluoropyridin-2-yl)methyl]-6-methyl-1H-pyrazolo[3,4-b]pyridin-3-yl}-5,5-dimethyl-5,7-dihydro-6H-pyrrolo[2,3-d]pyrimidin-6-one], the minimal effective concentration in data set [1] was 1 µM. The negative logarithm of the IC50 (pIC50) in data set [2] is 6.74. In addition, the solubility at 24 h in data set [3] was determined as 260 µg/mL (≈ 479 µM).
For the compound `CC1(C(F)(F)F)C(=O)Nc2nc(-c3nn(Cc4ncccc4F)c4ncc(F)cc34)nc(NCC(N)(CF)CF)c21` (single isomer, unassigned; ent-4) [Example 19, ent-4-{[2-Amino-3-fluoro-2-(fluoromethyl)propyl]amino}-2-{5-fluoro-1-[(3-fluoropyridin-2-yl)methyl]-1H-pyrazolo[3,4-b]pyridin-3-yl}-5-methyl-5-(trifluoromethyl)-5,7-dihydro-6H-pyrrolo[2,3-d]pyrimidin-6-one (Enantiomer A)], in data set [1], the minimal effective concentration was 0.07 µM. Further, in data set [2], the pIC50 was 7.28.

By pIC50 is commonly meant the IC50 on a negative log10 scale, so that one unit is a factor of ten. The low end stands for a large IC50, the high end for a small IC50. Usually solubility stands for the concentration that dissolves in the medium under given conditions. A lower solubility goes with a poorly soluble substance.

Source of the values: patent US20170240566A1, “AMINO-SUBSTITUTED ANNULATED PYRIMIDINES AND USE THEREOF” (Bayer Pharma Aktiengesellschaft, priority 2014, published 2017).
